Drawing on ChEMBL document CHEMBL5370544, “Design, synthesis, and biological evaluation of 1-styrenyl isoquinoline derivatives for anti-hepatocellular carcinoma activity and effect on mitochondria” (Eur J Med Chem, 2023), this text covers IC50 and inhibition in vivo for 20 compounds.

For experiment [1], the system named is Huh-7. Description: Antiproliferative activity against human Huh-7 cells assessed as inhibition of cell growth measured after 72 hrs by MTT assay. The class given is functional, cell-based. Particulars: Huh-7, 72 h.
The test system of a further experiment is HCCLM9. The experiment is described as follows: Antiproliferative activity against human HCCLM9 cells assessed as inhibition of cell growth measured after 72 hrs by MTT assay. The experiment is classed as functional, cell-based. The following applies: HCCLM9, 72 h. (In general: Tetrazolium assays rely on reduction of a dye to a coloured formazan, in cell work by metabolically active cells.)

The test system of the next experiment is HepG2. The experiment is described as follows: Antiproliferative activity against human HepG2 cells assessed as inhibition of cell growth measured after 72 hrs by MTT assay. The class given is functional, cell-based. Particulars: HepG2, 72 h.
The next experiment has as its system SK-HEP1. The experiment is described as follows: Antiproliferative activity against human SK-HEP1 cells assessed as inhibition of cell growth measured after 72 hrs by MTT assay. The experiment is classed as functional, cell-based. Particulars: SK-HEP1, 72 h.
Experiment [2] deals with Huh-7. The experiment is described as follows: Antitumor activity against human Huh-7 cells xenografted in BALB/c mouse assessed as tumor growth inhibition at 15 mg/kg, ip qd measured after 14 days. The class given is functional. The following applies: Huh-7, 336 h, time 14 day, read-out: TGI. A general note: Xenograft models place foreign cells or tissue in a host animal.

Molecules are shown by their SMILES.

By IC50 is commonly meant the concentration needed to halve the response being measured. In the case of `Oc1ccc(/C=C/c2cc(O)cc(O)c2)cc1` [RESVERATROL], the IC50 in the experiment with Huh-7 [1], in the experiment on HCCLM9, with HepG2 and in the experiment on SK-HEP1 was over 40 µM in each case.
Regarding `CNC(=O)c1cc(Oc2ccc(NC(=O)Nc3ccc(Cl)c(C(F)(F)F)c3)cc2)ccn1` [SORAFENIB], the IC50 in the experiment on Huh-7 [1] was 9.48 µM; in the experiment with HCCLM9, 9.21 µM; in the experiment with HepG2, 9.03 µM; in the experiment on SK-HEP1 it was 8.63 µM. In addition, the inhibition in vivo at 15 mg/kg in the experiment with Huh-7 [2] is 77%.
`Oc1cccc(/C=C/c2nccc3ccccc23)c1`: the IC50 in the experiment on Huh-7 [1] is 24.7 µM; with HCCLM9 it was over 40 µM; in the experiment on HepG2, 20.4 µM; in the experiment on SK-HEP1 it was over 40 µM.
Regarding `N#Cc1cccc(/C=C/c2nccc3ccccc23)c1`, the IC50 was 12.2 µM with Huh-7 [1], over 40 µM with HCCLM9, over 40 µM in the experiment on HepG2 and over 40 µM in the experiment on SK-HEP1.
As to `C#Cc1ccc(/C=C/c2nccc3ccccc23)cc1`, the IC50 is 12.9 µM in the experiment with Huh-7 [1], over 40 µM in the experiment on HCCLM9, over 40 µM in the experiment on HepG2 and over 40 µM in the experiment on SK-HEP1.
For the compound `O=c1[nH]cc(F)c(=O)[nH]1` [FLUOROURACIL], the IC50 was 8.98 µM in the experiment with Huh-7 [1], 27.2 µM with HCCLM9, 29.4 µM in the experiment on HepG2 and over 40 µM with SK-HEP1.
In the case of `Nc1ccc(/C=C/c2nccc3ccccc23)cc1`, the IC50 with Huh-7 [1] is 17.3 µM; in the experiment with HCCLM9 it was 16.1 µM; with HepG2, 23.4 µM; in the experiment with SK-HEP1 it was over 40 µM.
For `CC(=O)Oc1ccc(/C=C/c2nccc3ccccc23)cc1`, in that order: 15.4 µM, 35.1 µM, 20.6 µM and 23.4 µM.
With `Oc1ccccc1/C=C/c1nccc2ccccc12`, the IC50 in the experiment on Huh-7 [1] was found to be 6.07 µM; in the experiment on HCCLM9, 13.6 µM; with HepG2, 8.92 µM; in the experiment on SK-HEP1 it was 17.1 µM.
For `N#Cc1ccccc1/C=C/c1nccc2ccccc12`, in that order: 4.52 µM, 10.8 µM, 17.4 µM and 11.7 µM.
In the same order, the values of `N#Cc1ccc(/C=C/c2nccc3ccccc23)cc1` are 5.61 µM, 30.7 µM, over 40 µM and over 40 µM.
For the compound `COc1ccc(/C=C/c2nccc3ccccc23)cc1`, the IC50 with Huh-7 [1] was 15.8 µM; with HCCLM9 it was over 40 µM; in the experiment on HepG2, 18.1 µM; in the experiment with SK-HEP1, over 40 µM.
Consider `C(=C\c1nccc2ccccc12)/c1ccc(-c2ccccc2)cc1`, for which the IC50 with Huh-7 [1], with HCCLM9, with HepG2 and in the experiment with SK-HEP1 was over 40 µM each time.
For `COc1cccc(/C=C/c2nccc3ccccc23)c1`, the IC50 in the experiment with Huh-7 [1] is 15.1 µM; in the experiment on HCCLM9, 20.4 µM; with HepG2, 10.8 µM; in the experiment on SK-HEP1, 33 µM.
For `COc1ccccc1/C=C/c1nccc2ccccc12`, in that order: 23.9 µM, 37.6 µM, 26.8 µM and 37.6 µM.
Consider `Oc1ccc(/C=C/c2nccc3ccccc23)cc1`, for which the IC50 was 11.9 µM in the experiment with Huh-7 [1], 29.9 µM in the experiment with HCCLM9, over 40 µM in the experiment on HepG2 and over 40 µM in the experiment on SK-HEP1.
With `CC(=O)Oc1cccc(/C=C/c2nccc3ccccc23)c1`, the IC50 in the experiment with Huh-7 [1] turned out to be 11.6 µM; in the experiment with HCCLM9 it was 28.6 µM; with HepG2 it was 14.5 µM; with SK-HEP1, 14.3 µM.
In the same order, the values of `Nc1ccccc1/C=C/c1nccc2ccccc12` are over 40 µM, over 40 µM, 25.3 µM and 26.1 µM.
With `C#Cc1ccccc1/C=C/c1nccc2ccccc12`, the IC50 was 24.8 µM in the experiment on Huh-7 [1], over 40 µM in the experiment on HCCLM9, 31 µM in the experiment with HepG2 and 39.2 µM in the experiment on SK-HEP1.
In the same order, the values of `Nc1cccc(/C=C/c2nccc3ccccc23)c1` are 14.1 µM, 30.9 µM, 8.66 µM and over 40 µM.
